Values belong to the compound of their own block, whether it stands above or below them.
How the values were obtained:
[1] = tested on: ROCK; conditions: cell-free assays; cited from earlier work
[2] = tested on: human embryonic stem cells (hESCs); conditions: cited from earlier work
[3] = target: TGF-β receptor type II (TβRII) (Homo sapiens, UniProt P37173); conditions: cell-free assays; cited from earlier work
[4] = tested on: p38, MAPK and other kinases; conditions: cited from earlier work
[5] = target: ROCK1 (Homo sapiens, UniProt Q13464); conditions: cited from earlier work
Chain of ROCK1 (Q13464 whole entry): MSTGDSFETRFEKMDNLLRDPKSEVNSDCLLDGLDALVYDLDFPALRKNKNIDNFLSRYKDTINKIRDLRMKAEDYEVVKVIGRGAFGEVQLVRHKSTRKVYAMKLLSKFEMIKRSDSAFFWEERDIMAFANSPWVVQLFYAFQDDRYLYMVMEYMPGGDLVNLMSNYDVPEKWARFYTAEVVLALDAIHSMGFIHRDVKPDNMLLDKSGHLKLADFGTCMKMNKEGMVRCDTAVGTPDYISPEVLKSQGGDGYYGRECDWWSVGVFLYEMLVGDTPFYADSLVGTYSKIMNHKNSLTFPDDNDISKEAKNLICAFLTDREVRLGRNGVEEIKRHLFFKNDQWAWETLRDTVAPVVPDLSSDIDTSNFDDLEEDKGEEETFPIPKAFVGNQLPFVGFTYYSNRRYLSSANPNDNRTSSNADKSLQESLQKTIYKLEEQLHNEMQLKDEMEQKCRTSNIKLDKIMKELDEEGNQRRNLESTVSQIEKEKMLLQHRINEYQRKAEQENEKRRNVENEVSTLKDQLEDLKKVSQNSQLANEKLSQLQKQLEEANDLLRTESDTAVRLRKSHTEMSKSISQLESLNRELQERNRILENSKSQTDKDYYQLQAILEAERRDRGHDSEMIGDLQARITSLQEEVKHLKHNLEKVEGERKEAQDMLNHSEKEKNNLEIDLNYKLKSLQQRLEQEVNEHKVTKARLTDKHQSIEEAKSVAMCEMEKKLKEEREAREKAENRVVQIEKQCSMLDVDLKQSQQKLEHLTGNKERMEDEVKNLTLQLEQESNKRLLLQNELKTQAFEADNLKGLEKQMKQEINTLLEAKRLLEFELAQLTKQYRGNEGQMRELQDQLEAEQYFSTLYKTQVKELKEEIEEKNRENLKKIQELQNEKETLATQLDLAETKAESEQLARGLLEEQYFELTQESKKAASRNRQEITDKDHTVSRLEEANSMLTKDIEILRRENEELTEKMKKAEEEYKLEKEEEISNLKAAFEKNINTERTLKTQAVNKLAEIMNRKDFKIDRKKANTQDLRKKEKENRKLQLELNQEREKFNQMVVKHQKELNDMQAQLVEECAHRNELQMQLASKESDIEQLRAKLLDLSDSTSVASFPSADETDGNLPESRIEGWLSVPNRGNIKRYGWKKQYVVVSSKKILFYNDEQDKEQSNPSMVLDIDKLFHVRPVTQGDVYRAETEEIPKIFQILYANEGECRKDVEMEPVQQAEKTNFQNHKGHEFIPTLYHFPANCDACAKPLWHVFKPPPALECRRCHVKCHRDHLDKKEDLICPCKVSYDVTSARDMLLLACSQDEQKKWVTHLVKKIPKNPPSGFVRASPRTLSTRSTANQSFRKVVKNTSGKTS

[6] = target: TGF-βRII (Homo sapiens, UniProt P37173); conditions: cited from earlier work
Chain of TGF-βRII (P37173 23-567): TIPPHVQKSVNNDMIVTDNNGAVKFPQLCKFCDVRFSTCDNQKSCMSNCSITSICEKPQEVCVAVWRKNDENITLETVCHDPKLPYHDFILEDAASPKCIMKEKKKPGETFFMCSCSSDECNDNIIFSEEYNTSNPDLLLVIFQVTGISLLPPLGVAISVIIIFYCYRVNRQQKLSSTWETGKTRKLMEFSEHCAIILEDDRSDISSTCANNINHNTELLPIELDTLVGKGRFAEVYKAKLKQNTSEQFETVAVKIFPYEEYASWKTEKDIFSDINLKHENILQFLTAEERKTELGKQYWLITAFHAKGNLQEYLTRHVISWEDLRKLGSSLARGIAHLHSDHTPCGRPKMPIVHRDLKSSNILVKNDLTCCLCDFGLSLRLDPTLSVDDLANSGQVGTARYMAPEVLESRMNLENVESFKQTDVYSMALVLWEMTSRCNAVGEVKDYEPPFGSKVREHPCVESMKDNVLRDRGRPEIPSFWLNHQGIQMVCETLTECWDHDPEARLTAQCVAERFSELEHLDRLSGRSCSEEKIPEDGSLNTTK

[7] = tested on: Wnt signaling pathway; conditions: cited from earlier work
[8] = tested on: CYP1A2; assay type: cell-based, human
[9] = tested on: PKC, cAMP-dependent protein kinases, MLCK and PAK; conditions: cited from earlier work
[10] = target: T1, ALK4 (Homo sapiens, UniProt P36896); conditions: cited from earlier work
T1 sequence (P36896 24-505): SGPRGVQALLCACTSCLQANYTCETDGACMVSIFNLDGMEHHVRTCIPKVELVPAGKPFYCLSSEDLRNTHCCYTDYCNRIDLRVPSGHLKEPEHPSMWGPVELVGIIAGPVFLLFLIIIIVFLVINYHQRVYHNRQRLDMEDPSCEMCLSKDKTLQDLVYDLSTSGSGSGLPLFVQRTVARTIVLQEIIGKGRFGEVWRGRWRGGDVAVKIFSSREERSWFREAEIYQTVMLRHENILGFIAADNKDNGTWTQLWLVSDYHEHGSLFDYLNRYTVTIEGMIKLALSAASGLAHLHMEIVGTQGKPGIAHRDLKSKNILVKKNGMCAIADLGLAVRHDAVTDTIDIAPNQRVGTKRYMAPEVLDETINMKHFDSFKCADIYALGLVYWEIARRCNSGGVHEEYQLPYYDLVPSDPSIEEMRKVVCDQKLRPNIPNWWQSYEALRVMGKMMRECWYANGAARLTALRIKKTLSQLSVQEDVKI

[11] = tested on: ALK2, ALK3 and ALK6; conditions: cited from earlier work
[12] = target: T2, ALK7 (Homo sapiens, UniProt Q8NER5); conditions: in words; cited from earlier work
T2 sequence (Q8NER5 21-493): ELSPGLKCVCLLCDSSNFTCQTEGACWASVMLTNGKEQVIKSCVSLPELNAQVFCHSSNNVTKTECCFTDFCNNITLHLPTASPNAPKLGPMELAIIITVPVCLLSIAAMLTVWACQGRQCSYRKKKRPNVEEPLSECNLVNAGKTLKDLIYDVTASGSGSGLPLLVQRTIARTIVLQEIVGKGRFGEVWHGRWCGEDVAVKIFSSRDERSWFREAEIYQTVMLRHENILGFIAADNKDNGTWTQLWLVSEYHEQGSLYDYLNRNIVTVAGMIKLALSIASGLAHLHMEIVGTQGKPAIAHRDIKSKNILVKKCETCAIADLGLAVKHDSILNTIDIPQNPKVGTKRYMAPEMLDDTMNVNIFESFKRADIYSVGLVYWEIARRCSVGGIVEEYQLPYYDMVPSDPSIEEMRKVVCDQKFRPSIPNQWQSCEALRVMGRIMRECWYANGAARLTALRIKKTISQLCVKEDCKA

[13] = tested on: ALK1, ALK2, ALK3 or ALK6; conditions: cited from earlier work
[14] = tested on: CDC2, ERK2 and other kinases; conditions: cited from earlier work
[15] = in vivo; cited from earlier work
[16] = in vivo; cited from earlier work; remark: listed apart in the source
[17] = target: GSK-3β (Homo sapiens, UniProt P49841); conditions: cited from earlier work
Chain of GSK-3β (P49841 whole entry): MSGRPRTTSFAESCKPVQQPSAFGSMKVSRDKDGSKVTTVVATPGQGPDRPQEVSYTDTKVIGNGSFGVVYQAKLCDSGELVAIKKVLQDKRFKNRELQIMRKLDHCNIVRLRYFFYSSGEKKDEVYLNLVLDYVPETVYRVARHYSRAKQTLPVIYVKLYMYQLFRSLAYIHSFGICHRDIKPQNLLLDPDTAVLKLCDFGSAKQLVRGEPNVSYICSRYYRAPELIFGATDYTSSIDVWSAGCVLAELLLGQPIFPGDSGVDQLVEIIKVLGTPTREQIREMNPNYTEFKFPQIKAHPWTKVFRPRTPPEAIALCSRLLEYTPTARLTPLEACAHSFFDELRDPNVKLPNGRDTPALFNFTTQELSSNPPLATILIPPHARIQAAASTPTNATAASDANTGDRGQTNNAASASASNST

[18] = target: GSK-3α (Homo sapiens, UniProt P49840); conditions: cited from earlier work
Chain of GSK-3α (P49840 whole entry, species assumed): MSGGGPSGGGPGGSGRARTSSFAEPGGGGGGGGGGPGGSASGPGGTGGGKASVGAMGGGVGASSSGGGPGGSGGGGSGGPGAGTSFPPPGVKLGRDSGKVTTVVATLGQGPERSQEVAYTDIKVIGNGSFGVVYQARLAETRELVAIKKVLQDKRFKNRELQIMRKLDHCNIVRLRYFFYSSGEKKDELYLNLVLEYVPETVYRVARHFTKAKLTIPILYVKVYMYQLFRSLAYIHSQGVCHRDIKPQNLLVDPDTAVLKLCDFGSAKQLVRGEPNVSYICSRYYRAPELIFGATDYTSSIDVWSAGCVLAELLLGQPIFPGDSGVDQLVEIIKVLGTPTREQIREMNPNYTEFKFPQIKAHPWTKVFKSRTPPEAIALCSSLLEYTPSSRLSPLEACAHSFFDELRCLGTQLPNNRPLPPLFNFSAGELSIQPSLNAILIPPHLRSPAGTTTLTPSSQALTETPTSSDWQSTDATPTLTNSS

[19] = target: TGF-β type II receptors (Homo sapiens, UniProt P37173); conditions: cited from earlier work
Chain of TGF-β type II receptors (P37173 23-567): as the sequence (P37173 23-567) above

[20] = tested on: activin type II receptors; conditions: cited from earlier work
[21] = tested on: BMP type II receptors; conditions: cited from earlier work

Chain of TGF-β receptor type II (TβRII) (P37173 23-567): as above

Compound: O=C(NCc1ccccc1)c1csc(Nc2ccncn2)n1 [Thiazovivin]
IC50 [1]: 500 nM
survival of human embryonic stem cells (hESCs) after single cell isolation [2]: promotes the survival

Compound: c1ccc(-c2nn3c(c2-c2ccnc4cc(OCCN5CCOCC5)ccc24)CCC3)nc1 [LY2109761]
Ki [3]: 300 nM

Compound: NC(=O)c1ccc(-c2nc(-c3ccc4c(c3)OCO4)c(-c3ccccn3)[nH]2)cc1 [SB-431542]
times more inhibitory on ALK5 than on p38, MAPK and other kinases [4]: 100 times

Compound: O=C(NCc1cccc(O)c1)Nc1nc(-c2ccncc2)cs1 [RKI-1447]
IC50 [5]: 14.5 nM

Compound: SD-208
times more selective on TGF-βRI than on TGF-βRII [6]: ≥ 100 times

Compound: CN1CCN(S(=O)(=O)c2ccc(-c3cnc(N)c(C(=O)Nc4cccnc4)n3)cc2)CC1 [AZD2858]
effect on the Wnt signaling pathway [7]: enhances

activity of P450 enzyme (CYP1A2) when induced [8]: enhanced
Compound: COc1ccc2[nH]c([S+]([O-])Cc3ncc(C)c(OC)c3C)nc2c1 (centres unmarked) [omeprazole]

Compound: C[C@@H](N)[C@H]1CC[C@H](C(=O)Nc2ccncc2)CC1 [Y-27632]
times more inhibitory on ROCK1 than on other kinases including PKC, cAMP-dependent protein kinases, MLCK and PAK [9]: ≥ 200 times

Compound: Cc1cccc(-c2[nH]c(C(C)(C)C)nc2-c2ccc3nccnc3c2)n1 [SB525334]
effect on ALK4, times lower than on ALK5 [10]: 4 times
activity on ALK2, ALK3 and ALK6 [11]: no activity

Compound: Cc1cccc(-c2[nH]c(C(C)(C)C)nc2-c2ccc3c(c2)OCO3)n1 [SB505124]
IC50 ([10]; cell-free assays where stated): 129 nM
inhibition of ALK7 [12]: inhibits
inhibition of ALK1, ALK2, ALK3 or ALK6 [13]: does not inhibit

Compound: Cc1cnc(-c2cnc(NCCNc3ccc(C#N)cn3)nc2-c2ccc(Cl)cc2Cl)[nH]1 [CHIR-99021]
times more inhibitory on GSK-3α and GSK-3β than on CDC2, ERK2 and other kinases [14]: 500 times

Compound: Cc1cccc(-c2[nH]c(CNc3ccccc3F)nc2-c2ccc3ncnn3c2)n1 [EW-7197]
oral bioavailability [15]: orally bioavailable

Compound: N#Cc1ccc2[nH]c(O)c(-c3ccc(CN4CCOCC4)cn3)c2c1 [AZD1080]
oral bioavailability [15]: orally bioavailable
permeability to the brain [16]: permeable to the brain

Compound: Nc1cccc(-c2cc3c(Oc4cccc(O)c4)ncnc3[nH]2)c1 [TWS119]
IC50 [17]: 30 nM

Compound: CHIR-98014
IC50 [18]: 0.65 nM

Compound: O=C(NC1CCOCC1)c1ccc(-c2cc(-c3c[nH]nc3-c3ccccn3)ccn2)cc1 [GW788388]
inhibition of the activity of TGF-β type II receptors [19]: inhibits
inhibition of the activity of activin type II receptors [20]: inhibits
inhibition of the activity of BMP type II receptors [21]: does not inhibit
